Here are results for 14 compounds from US4952592A, “1,4-dihydro 2,6-dimethyl 4-(2,3-methylenedioxyphenyl) 3-alkoxy carbonyl 5-[2-(substituted amino)ethoxy]carbonyl pyridine” (Instituto de Investigacion Y Desarrollo Quimicobiologico …, priority 1987, dated 1990).

Data set [1] relates to rat aorta. In words: Inhibitory effects with respect to contractions of the rat aorta induced by 80 mM KCl. The conditions noted are these: isolated rat aorta. The class given is cell-based, WISTAR rats. The method, then: The compounds of the present invention were tested for their calcium-inhibitory properties by standard methods applicable "in vitro".
Inhibitory effects with respect to contractions of the rat aorta induced by 80 mM KCl.
The aorta of WISTAR rats (220-250 g), sacrificed by decapitation, are removed and placed in a 20-ml organ bath at a temperature of 34° C., containing a KREBS solution composed as follows (in mmol per liter): NaCl, 137; KCl, 2.7; MgCl2.6H2 O, 1.04; CaCl2.2H2 O, 0.8; Na2 HPO4.H2 O, 0.42; NaHCO3, 11.9; glucose, 5. This solution is oxygenated with a mixture of 95% of O2 and 5% of CO2 (Furchgott and Bhadakron, 1956).
After a 45-minute stabilization period under a tension of 2 g, the maximal contractions of the artery are induced by adding KCl to the bath until a final concentration of 80 mmol/liter is attained. After the contractions have stabilized, the compounds of the invention, or OXODIPINE as control substance, are added, leaving a period of at least 10 minutes for stabilizing the relaxation.
The compounds of the present invention are dissolved in ethanol to give concentrated solutions containing approximately 1 mg/ml, from which the dilutions used above, from 10^-13 to 10^-7 M, are obtained by adding saline solution. The 50% inhibitory concentrations (IC50) are determined by analysis of the straight regression line.

The subject of data set [2] is conscious renal hypertensive rats. In words: antihypertensive activity on conscious renal hypertensive rats (systolic blood pressure, tail sleeve). The class given is in vivo, rat. The conditions noted are these: i.p.; for decrease of the original high pressure: 1 mg/kg. As to the method: (2)1- antihypertensive activity:
A few compounds according to the invention were tested for their antihypertensive activity on conscious renal hypertensive rats. The systolic blood pressure was measured on the tail of unanaesthetized rats by means of an inflatable sleeve and an L.H.5 000 digital pressure gauge (Letica Instruments, Barcelona, Spain). The measurements were carried out before the i.p. administration of the test substance, and then 30 minutes, 1, 2, 4 and 5 hours after administration. The animals were maintained in preheated plastic cylinders during the measurements. Rats having a blood pressure of less than 160 mmHg were eliminated from the experiment.
Each compound was administered in 5% strength suspension (CMC) by i.p. injection.

Data set [3] in a line: in vivo. The following applies: mouse, ip, mice, i.p., mortality in 7 days, read-out: intraperitoneal LD50. The method, then:
The acute toxicity of a few compounds of the invention was determined in mice according to the method of […] and WILCOXON. Groups of 5 mice weighing 20-25 g were treated with increasing i.p. doses of the test compounds. The mortality was recorded in the 7 days following the treatment, and the LD50 calculated on this basis.

Data set [4] concerns coronary vessels. Description: Vascular activity in anaesthetized dogs: regional blood flows and haemodynamics with coronary artery occlusion. The following applies: i.v. The class given is in vivo. The method, then: The beneficial effects on the oxygen supply/consumption balance may be accompanied by a modification of the blood distribution within the wall, which will be better irrigated, and by an increase in the blood flow in the collateral vessels during an acute occlusion of the coronary artery. The effects of the compound of Example 11, at doses of 10 and less than 10 μg/kg i.v., were explored in anaesthetized dogs in order to determine: the regional (endocardium, epicardium) myocardial blood flows in the ischaemic and non-ischaemic zones, the ratio between the endo- and epicardial flows and the ratio of the flows in the ischaemic/nonischaemic zone, the regional blood flows in other areas (spleen, pancreas, kidney, liver, stomach, intestines, muscle, skin) in order to define the selectivity of action of the compound. The studies were carried out on 6 adult dogs, according to the technique of […] and […]. Pharmacol. 1985 - 16 - 59 - 74 and J. Pharmacol. Exp. Ther. 1982, 221, 740-747). In addition, the haemodynamic parameters (heart rate, arterial blood pressure, left ventricular pressure, cardiac flow, total peripheral resistance, systolic ejection volume, cardiac work, contractility index) were monitored at regular times, before and after 3 successive short periods (12 minutes) of total occlusion of the coronary artery, the injection of radioactive microspheres enabling the regional flows to be evaluated. After the first period of ischaemia, the parameters were allowed to return to normal before the test compound was injected, the second occlusion was then performed and this procedure was repeated, the reversibility of the parameters being complete approximately 45 minutes after each occlusion. The test compound was administered in aqueous-alcoholic solution (0.1 mg/ml) on the basis of 0.1 ml/kg i.v.

For data set [5] the following is noted: 3 mg/kg/min and above, in words; cited from earlier work.

With `CNCCOC(=O)C1=C(C)NC(C)=C(C(=O)OC)C1c1cccc2c1OCO2` (centres unmarked) [Example 1, 3-Methyl 5-[2-(N-methylamino)ethyl]1,4-dihydro-2,6-dimethyl-4-(2,3-methylenedioxyphenyl)-3,5-pyridinedicarboxylate], in data set [1], the IC50 stood at 1920 nM.
In the case of `COC(=O)C1=C(C)NC(C)=C(C(=O)OCCN(C)C=O)C1c1cccc2c1OCO2` (centres unmarked) [Example 2, 3-Methyl 5-[2-(N-formyl-N-methylamino)ethyl]1,4-dihydro-2,6-dimethyl-4-(2,3-methylenedioxyphenyl)-3,5-pyridinedicarboxylate], in data set [1], half-maximal inhibition (IC50) required 558 nM.
As to `COC(=O)C1=C(C)NC(C)=C(C(=O)OCCN(C=O)Cc2ccccc2)C1c1cccc2c1OCO2` (centres unmarked) [Example 3, 3-Methyl 5-[2-(N-formyl-N-benzylamino)ethyl]1,4-dihydro-2,6-dimethyl-4-(2,3-methylenedioxyphenyl)-3,5-pyridinedicarboxylate], the half-maximal inhibitory concentration (IC50) in data set [1] was 52.8 nM.
On to `COC(=O)C1=C(C)NC(C)=C(C(=O)OCCN(C)Cc2ccccn2)C1c1cccc2c1OCO2` (centres unmarked) [Example 4, 3 -Methyl 5-{2-[N-methyl-N-(2-picolyl)amino]ethyl}1,4-dihydro-2,6-dimethyl-4-(2,3-methylenedioxyphenyl)-3,5-pyridinedicarboxylate], for which the 50% inhibitory concentration (IC50) in data set [1] came out at 81.1 nM.
Same read-out and setting: the value for `COC(=O)C1=C(C)NC(C)=C(C(=O)OCCN(C)Cc2ccncc2)C1c1cccc2c1OCO2` (centres unmarked) [Example 5, 3-Methyl 5{2-[N-methyl-N-(4-picolyl)amino]ethyl}1,4-dihydro-2,6-dimethyl-4-(2,3-methylenedioxyphenyl)-3,5-pyridinedicarboxylate] was 245 nM; that for `COC(=O)C1=C(C)NC(C)=C(C(=O)OCCN(C)Cc2cccnc2)C1c1cccc2c1OCO2` (centres unmarked) [Example 6, 3-Methyl 5-{2-[N-methyl-N-(3-picolyl)amino]ethyl}1,4-dihydro-2,6-dimethyl-4-(2,3-methylenedioxyphenyl)-3,5-pyridinedicarboxylate] was 9 nM; that for `COC(=O)C1=C(C)NC(C)=C(C(=O)OCCN(C)Cc2ccc(F)cc2)C1c1cccc2c1OCO2` (centres unmarked) [Example 7, 3-Methyl 5-{2-[N-methyl-N-(4-fluorobenzyl)amino]ethyl}1,4-dihydro-2,6-dimethyl-4-(2,3-methylenedioxyphenyl)-3,5-pyridinedicarboxylate] was 2.75 nM.
Consider `CCOC(=O)C1=C(C)NC(C)=C(C(=O)OCCN(C)Cc2ccc(F)cc2)C1c1cccc2c1OCO2` (centres unmarked) [Example 8, 3-Ethyl 5-{2-[N-methyl-N-(4-fluorobenzyl)amino]ethyl}1,4-dihydro-2,6-dimethyl-4-(2,3-methylenedioxyphenyl)-3,5-pyridinedicarboxylate], for which half-maximal inhibition in data set [1] (IC50) was put at 0.04 nM. For the same compound, in data set [2], the “decrease of the original high pressure” value is recorded as 23%. The 50% lethal dose (LD50) at 168 h in data set [3] lay within 70 to 80 mg/kg.
As to `COC(=O)C1=C(C)NC(C)=C(C(=O)OCCN(C)Cc2cccs2)C1c1cccc2c1OCO2` (centres unmarked) [Example 9, 3-Methyl 5-{2-[N-methyl-N-(2-thienylmethyl)amino]ethyl}1,4-dihydro-2,6-dimethyl-4-(2,3-methylenedioxyphenyl)-3,5-pyridinedicarboxylate], the IC50 in data set [1] was 13 nM.
In turn, `CCOC(=O)C1=C(C)NC(C)=C(C(=O)OCCN(C)Cc2cccs2)C1c1cccc2c1OCO2` (centres unmarked) [Example 10, 3-Ethyl 5-{2-[N-methyl-N-(2-thienylmethyl)amino]ethyl}1,4-dihydro-2,6-dimethyl-4-(2,3-methylenedioxyphenyl)-3,5-pyridinedicarboxylate] showed an IC50 in data set [1] of 0.904 nM.
On to `CC1=C(C(=O)OCCN(C)Cc2ccc(F)cc2)C(c2cccc3c2OCO3)C(C(=O)OC(C)C)=C(C)N1` (centres unmarked) [Example 11, 3-Isopropyl 5-{2-[N-methyl-N-(4-fluorobenzyl)amino]ethyl}1,4-dihydro-2,6-dimethyl-4-(2,3-methylenedioxyphenyl)3,5-pyridinedicarboxylate], for which, in data set [2], the “decrease of the original high pressure” value was found to be 33% and the “duration of antihypertensive effects” value is “more than 6 hours”. In data set [3], the LD50 at 168 h lay within 30 to 40 mg/kg. Further, in data set [4], the “arterial blood pressure change” value is listed as -13%, the cardiac flow change result is “+9%”, the heart rate change is given as -9% and the “systolic ejection volume change” value is “+18%”. Besides, the “total peripheral resistance reduction” value in data set [4] was 20%. This compound gave an epicardial flow increase in data set [4] (ischaemic zones) of at least 20%. Also, the endo/epi ratio change in data set [4] (ischaemic zones, p<0.05) is listed as -21%. This compound also displayed a transmural flow increase in data set [4] (non-ischaemic zones) of 42%. In addition, in data set [4] (non-ischaemic zones, p<0.001), the endo/epi ratio change is reported as -22% and the epicardial flow change result is recorded as “+62%”. In data set [4] (non-ischaemic zones, p<0.05), the “coronary vascular resistance change” value is recorded as -38% and the endocardial flow change result is “+26%”.
With `CC1=C(C(=O)OCCN(C)Cc2cccs2)C(c2cccc3c2OCO3)C(C(=O)OC(C)C)=C(C)N1` (centres unmarked) [Example 12, 3-Isopropyl 5-{2-[N-methyl-N-(2-thienylmethyl)amino]ethyl}1,4-dihydro-2,6-dimethyl-4-(2,3-methylenedioxyphenyl)-3,5-pyridinedicarboxylate], 22.5 nM corresponded to half-maximal inhibition in data set [1] (IC50).
On to `COC(=O)C1=C(C)NC(C)=C(C(=O)OC)C1c1ccccc1[N+](=O)[O-]` [NIFEDIPINE], for which, in data set [5], the heart rate result is reported as “increased”, the myocardial regional flows result is recorded as “decreases the myocardial regional flows” and the perfusion pressure result is given as “strongly reduced”.
Turning to `CCOC(=O)C1=C(C)NC(C)=C(C(=O)OC)C1c1cccc2c1OCO2` (centres unmarked) [OXODIPINE, reference compound], the IC50 in data set [1] was determined as 3.1 nM.
